{
  "source": "patent US6413914B1",
  "about": "“Low foam N,N′-dialkylmalamide wetting agents” (Air Products and Chemicals, Inc., priority 2001, dated 2002)",
  "type_in_all_cases": "physicochemical",
  "key": {"[1]": {"experiment": "Foaming properties, procedure based upon ASTM D 1173-53", "settings": "for Initial Foam: foam height at completion of addition", "protocol": "The foaming properties of aqueous solutions of N,N′-di-iso-pentyl DL-malamide (Ex 2) and N,N′-di-2-ethylhexyl DL-malamide (Ex 3), were examined using a procedure based upon ASTM D 1173-53. In this test, a 0.1 wt % aqueous mixture of the surfactant was prepared, any undissolved solids were filtered off, and the filtrate was added from an elevated glass pipette to a glass receiver containing the same filtrate. The foam height was measured at the completion of the addition (“Initial Foam Height”) and the time required for the foam to dissipate at the air-liquid interface (“Time to 0 Foam”) was recorded. This test provides a comparison between the foaming characteristics of various surfactants. In general, in coatings, inks, adhesives, fountain solution, agricultural, and electronic chemical formulations, foam is undesirable because it complicates handling and can lead to coating and print defects, and to inefficient application of agricultural materials or electronic chemicals.\nThe foaming properties of 0.1 wt % solutions of two representative nonionic surfactants, a commercial nonylphenol 15 mole ethoxylate surfactant and a commercial C8 alkyl glucoside surfactant were examined using the procedure based upon ASTM D 1173-53."}, "[2]": {"experiment": "Concentration of surfactant in filtered saturated solution in distilled water", "settings": "shaken ~24 hours", "protocol": "(§1) Saturated solutions of the materials of Examples 1-3 in distilled water were prepared. After shaking the solutions for ˜24 hours, the undissolved material was removed via filtration. Equilibrium surface tension data were obtained using the Wilhelmy plate method, described in L. Wilhelmy, Ann. Phys. 1863, 119, 177."}, "[3]": {"experiment": "Equilibrium surface tension, Wilhelmy plate method, saturated solutions in distilled water", "settings": "for Limiting EST: saturated solution in distilled water, undissolved material filtered off, Wilhelmy plate, 25° C.", "protocol": "as §1\nThe limiting surface tensions represent the lowest surface tensions in water which can be achieved for a given surfactant regardless of the amount of surfactant used and is used to evaluate the effectiveness of a surfactant. Lower surface tensions would allow for the elimination of defects upon application of a formulation onto low energy surfaces."}, "[4]": {"settings": "0.1 wt % aqueous mixture, filtered"}},
  "data": [
    {"compound": "CC(C)CCNC(=O)CC(O)C(=O)NCCC(C)C", "note": "(racemic) [Di-isopentyl DL-malamide (Ex 2), N,N′-Di-iso-pentyl DL-malamide]", "values": [
      {"measurement": "Time to zero foam", "setting": "[1]; [4]", "value": 0.583, "unit": "min"},
      {"measurement": "Foam after 5 min", "setting": "[1]; [4]", "value": 0, "unit": "cm"},
      {"measurement": "Initial Foam", "setting": "[1]; [4]", "value": 1.4, "unit": "cm"},
      {"measurement": "Concentration of Surfactant in Solution", "setting": "[2]", "value": "<0.4", "unit": "wt. %"},
      {"measurement": "Limiting EST", "setting": "[3]", "value": 42.9, "unit": "dyne/cm"},
      {"measurement": "lowering the equilibrium surface tension of water (in words)", "setting": "[3]", "value": "particularly effective"}
    ]},
    {"compound": "CCCCC(CC)CNC(=O)CC(O)C(=O)NCC(CC)CCCC", "note": "(racemic) [Di-2-ethylhexyl DL-malamide (Ex 3), N,N′-Di-2-ethylhexyl DL-malamide]", "values": [
      {"measurement": "Time to zero foam", "setting": "[1]; [4]", "value": "˜2 sec"},
      {"measurement": "Foam after 5 min", "setting": "[1]; [4]", "value": 0, "unit": "cm"},
      {"measurement": "Initial Foam", "setting": "[1]; [4]", "value": 1.5, "unit": "cm"},
      {"measurement": "Concentration of Surfactant in Solution", "setting": "[2]", "value": "<0.1", "unit": "wt. %"},
      {"measurement": "Limiting EST", "setting": "[3]", "value": 38.5, "unit": "dyne/cm"},
      {"measurement": "lowering the equilibrium surface tension of water (in words)", "setting": "[3]", "value": "particularly effective"}
    ]},
    {"compound": "Nonylphenol 15 mole ethoxylate [reference compound]", "values": [
      {"measurement": "Foam after 5 min", "setting": "[1]; [4]", "value": 4, "unit": "cm"},
      {"measurement": "Initial Foam", "setting": "[1]; [4]", "value": 5, "unit": "cm"},
      {"measurement": "Time to zero foam", "setting": "[1]; 0.1 wt % solution", "value": ">5", "unit": "min"}
    ]},
    {"compound": "C8 Alkyl glucoside [reference compound]", "values": [
      {"measurement": "Foam after 5 min", "setting": "[1]; [4]", "value": 1.0, "unit": "cm"},
      {"measurement": "Initial Foam", "setting": "[1]; [4]", "value": 1.9, "unit": "cm"},
      {"measurement": "Time to zero foam", "setting": "[1]; 0.1 wt % solution", "value": 37, "unit": "min"}
    ]},
    {"compound": "CC(C)CNC(=O)CC(O)C(=O)NCC(C)C", "note": "(racemic) [Di-isobutyl DL-malamide (Ex 1), N,N′-Di-iso-butyl DL-malamide]", "values": [
      {"measurement": "Concentration of Surfactant in Solution", "setting": "[2]", "value": "<1.0", "unit": "wt. %"},
      {"measurement": "Limiting EST", "setting": "[3]", "value": 51.3, "unit": "dyne/cm"}
    ]}
  ]
}
